{
  "source": "patent US5504213A",
  "about": "“Benzofuranyl-and-thiophenyl-alkanecarboxyclic acid derivatives” (Bayer Aktiengesellschaft, priority 1993, dated 1996)",
  "key": {"[1]": {"tested_on": "FMLP-induced skin oedama of guinea pigs", "test": "Effect of intravenously administered compounds on the FMLP-induced skin oedema of guinea pigs", "format": "in vivo", "details": "guinea pig, 1 mg/kg", "method": "5. Effect of intravenously administered compounds on the FMLP-induced skin oedama of guinea pigs.\nGuinea-pigs (600-800 g) were anaesthetized with pentobarbitone sodium (40 mg/kg, i.p.) and injected (i.V.) with a 0.5 ml mixture of pentamine sky blue (5% W/V) and ^125 I-HSA ([…]). 10 minutes later 3 intradermal injections of FMLP (10 μg/site), 1 injection of histamine (1 μg/site) and 1 injection of vehicle (100 μl of 0.2% DMSO V/V in Hanks Buffered salt solution) were made on the left hand side of the animal (preinjection sites). 5 minutes later the drug (1 ml/kg) or the vehicle (50% PEG 400 V/V in distilled water, 1 ml/kg) was administered (i.V.). 10 minutes later an identical pattern of intradermal injections was made on the opposite flank of the animal (post-injection sites). These responses were allowed to develop for 15 minutes before the animal was sacrificed and a blood sample taken.\nSkin sites and plasma samples were counted for 1 minute on a gamma counter and the degree of oedema calculated as μl plasma/skin site. Statistical analysis was done by a paired t-test on the mean of the 3 pre-injection site values of μl plasma obtained for FMLP/animal. The percentage inhibition of drug or vehicle was calculated as follows [formula]"}, "[2]": {"tested_on": "FMLP-induced skin oedema of guinea-pigs", "test": "Effect of orally administered compounds on the FMLP-induced skin oedema of guinea-pigs in vivo", "details": "guinea pig, 25 mg/kg", "method": "6. Effect of orally administered compounds on the FMLP-induced skin oedema\nof guinea-pigs in vivo-Test's p.o.\nGuinea-pits (600-800 g) were fasted overnight and orally treated with vehicle ([…]; […]) 40 minutes later the animals were anasthetized with pentobarbitone sodium (40 mg/kg; i.p.) and 0.6 ml of a mixture of pontamine sky blue (5% w/v) and ^125 I-HSA (1 μci/animal) was injected (i.V.). 90 minutes after oral pretreatment FMLP (50 μg/site) was injected (i.d.) at 4 different sites, histamine (1 μg/site) and vehicle (100 μl, 1% DMSO v/v in Hanks buffered salt solution) were both injected (i.d.) at 2 different sites.\nThe responses were allowed to develop for 30 minutes before the animal was sacrificed and a blood sample taken.\nSkin sites and plasma samples were counted for 1 minute on a gamma counter. The degree of oedema was calculated as μl plasma/skin site.\nStatistical analysis was carried out by a Mann-Whitney U-test on the mean of the 4 values of μl Plasma obtained for FMLP/animal."}, "PMN cyclic AMP": {"tested_on": "PMN cyclic AMP", "test": "Measurement of PMN cyclic AMP concentration (human PMN, FMLP-stimulated)", "format": "cell-based", "details": "4×10^-8 M FMLP, control 100, expressed as percentage of vehicle control, read-out: % elevation of cAMP at 1 μM (control 100)", "method": "1. Preparation of human PMN\nBlood was taken from healthy subjects by venous puncture and neutrophils were purified by dextran sedimentation and resuspended in the buffered medium.\n3. Measurement of PMN cyclic AMP concentration\nThe compounds according to the invention were incubated with 3.7×10^6 PMN for 5 min at 37° C. before addition of 4×10^-8 M FMLP. After 6 min protein was precipitated by the addition of 1% v/v conc. HCl in 96% v/v ethanol containing 0.1 mM EDTA. After centrifugation the ethanolic extracts were evaporated to dryness under N2 and resuspended in 50 mM Tris/HCl pH 7.4 containing 4 mM EDTA. The cyclic AMP concentration in the extracts was determined using a cyclic AMP binding protein assay supplied by Amersham International plc. Cyclic AMP concentrations were expressed as percentage of vehicle containing control incubations."}},
  "data": [
    {"smiles": "COC(=O)CCc1c(C(=O)c2ccc(Cl)cc2)oc2cc(O)ccc12", "note": "[Example 30]", "values": [
      {"measurement": "% inhibition (FMLP-induced skin oedema, i.v.)", "setting": "[1]", "result": 40.0, "unit": "%"},
      {"measurement": "% inhibition (FMLP-induced skin oedema, p.o.)", "setting": "[2]", "result": 46, "unit": "%"},
      {"measurement": "activity at 1 µM", "setting": "PMN cyclic AMP", "result": 394, "unit": "%"}
    ]}
  ]
}
